In brackets after ≈: the same amount, converted by molar mass. Activity calls are given as the source filed them. No cut-off for these calls is given here. A value given as a limit tells only on which side of the number the result lay.

Data set [1] in a line: Oral bioavailability in Wistar rat at 10 mg/kg. The data set is classed as ADME, organism-based. As to conditions: in vivo.
Data set [2] can be described thus: Intrinsic clearance in rat liver microsomes. The data set is classed as ADME, Microsome.
The nature of data set [3]: Intrinsic clearance in human liver microsomes. The format is ADME, Microsome. A general note: Microsomes from liver hold many membrane-bound enzymes, among them those of drug oxidation.
Data set [4] has as its target Transient receptor potential cation channel subfamily V member 1 (Homo sapiens, UniProt Q8NER1). The data set can be described thus: Antagonist activity at human TRPV1 expressed in CHO-K1 cells assessed as inhibition of capsaicin-induced intracellular Ca2+ influx by FLIPR assay. The data set is classed as functional, cell-based.
Data set [5] can be described thus: Tmax in Wistar rat at 10 mg/kg, po. Also noted: dose 10 mg/kg, route oral. The conditions noted are these: in vivo. The data set is classed as ADME, organism-based.
Data set [6] in a line: Aqueous solubility of the compound in 0.05 M phosphate buffer at pH 7.4 by shake-flask method. The format is physicochemical.
Data set [7] in a line: Plasma protein binding in human. The data set is classed as ADME, cell-free. As to conditions: read-out: PPB (converted).
Data set [8] is described as follows: Octanol-water partition coefficient, log D of the compound at pH 7.4 by RP-HPLC analysis. The format is physicochemical.
Data set [9] can be described thus: Cmax in Wistar rat at 10 mg/kg, po. Also noted: dose 10 mg/kg, route oral. The format is ADME, organism-based. The conditions noted are these: in vivo.
A short description of data set [10]: Plasma protein binding in Wistar rat. The data set is classed as ADME, cell-free. The conditions noted are these: read-out: PPB (converted).
Data set [11] is described as follows: Half life in Wistar rat plasma at 10 mg/kg, po and 2 mg/kg, iv. The format is ADME, organism-based.
Data set [12] in a line: Clearance in Wistar rat at 10 mg/kg, po and 2 mg/kg, iv. The format is ADME, organism-based. The conditions noted are these: in vivo.
Data set [13] in a line: Volume of distribution at steady state in Wistar rat at 10 mg/kg, po and 2 mg/kg, iv. The data set is classed as ADME, organism-based. The conditions noted are these: in vivo, read-out: Vdss.
Data set [14] relates to Rattus norvegicus. The data set can be described thus: Antiinflammatory activity against capsaicin-induced thermal hyperalgesia in po dosed rat assessed as paw withdrawal latency administered 2 hrs before capsaicin challenge measured after 15 mins. The data set is classed as functional.
In data set [15] the test system is Rattus norvegicus. As to the kind of experiment: Antiinflammatory activity against capsaicin-induced thermal hyperalgesia in rat assessed as paw withdrawal latency at 3 to 30 umol/kg, po administered 2 hrs before capsaicin challenge measured after 15 mins. The format is functional, organism-based.
Another data set has as its system Hepatocyte. As to the kind of experiment: Intrinsic clearance in rat hepatocytes. The data set is classed as ADME, cell-based, Liver.

Chain of Transient receptor potential cation channel subfamily V member 1 (Q8NER1 whole entry): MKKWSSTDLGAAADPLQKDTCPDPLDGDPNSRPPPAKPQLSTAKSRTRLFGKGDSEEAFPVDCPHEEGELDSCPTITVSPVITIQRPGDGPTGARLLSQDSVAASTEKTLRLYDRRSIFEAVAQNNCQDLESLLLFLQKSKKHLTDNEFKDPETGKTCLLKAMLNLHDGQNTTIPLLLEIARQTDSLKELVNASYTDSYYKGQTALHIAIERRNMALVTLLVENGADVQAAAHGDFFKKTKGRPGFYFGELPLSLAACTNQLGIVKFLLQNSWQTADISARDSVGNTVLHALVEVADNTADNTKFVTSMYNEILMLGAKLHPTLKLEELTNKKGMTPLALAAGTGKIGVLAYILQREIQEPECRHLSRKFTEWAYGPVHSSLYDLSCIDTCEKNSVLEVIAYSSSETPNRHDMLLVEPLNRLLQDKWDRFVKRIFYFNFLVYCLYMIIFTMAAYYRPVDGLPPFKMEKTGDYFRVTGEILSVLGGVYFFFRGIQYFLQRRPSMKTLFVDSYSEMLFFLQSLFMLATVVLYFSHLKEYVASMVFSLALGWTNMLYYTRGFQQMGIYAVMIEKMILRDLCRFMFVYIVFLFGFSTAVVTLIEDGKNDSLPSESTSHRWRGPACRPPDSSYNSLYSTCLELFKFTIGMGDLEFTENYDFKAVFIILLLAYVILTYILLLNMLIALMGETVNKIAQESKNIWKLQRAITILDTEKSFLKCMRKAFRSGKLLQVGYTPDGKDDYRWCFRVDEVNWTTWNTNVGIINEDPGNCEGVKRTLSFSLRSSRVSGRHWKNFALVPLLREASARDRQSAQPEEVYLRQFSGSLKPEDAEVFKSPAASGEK

On to `CC(C)[C@H](CO)NCc1c(C(=O)N[C@@H]2CCC[C@H](O)C2)noc1-c1ccc(C(F)(F)F)cc1`, for which the bioavailability (in general, the share of a dose that reaches the circulation, judged against a reference dose that is usually intravenous) in [1] was 4%. Further, the microsomal CLint – broadly, a measure of how fast metabolising enzymes remove a compound, apart from limits set by blood flow – in [2] is 41 µL/min/mg; in data set [3], 12 µL/min/mg. Moreover, the IC50 (as a rule, the point on the concentration scale where inhibition reaches its midpoint) in data set [4] is 2.51 nM. For the same compound, in data set [5], the time of peak concentration (Tmax) (usually the time at which the peak concentration occurs) was 1.5 h. For the same compound, the thermodynamic solubility (as a rule, the concentration in solution at equilibrium with solid) in data set [6] is 79 µg/mL (≈ 168 µM). The fraction unbound in [7] was 0.256; in data set [10], 0.116. Also, in [8], the logD (usually lipophilicity at a set pH, counting ionised and neutral species) turned out to be 4.2. The Cmax (as a rule, the highest concentration seen after dosing) in data set [9] came to 230 nM. The half-life – broadly, the time in which the quantity being followed falls by half – in [11] is 4.3 h. Further, the clearance in [12] was 13.5 mL/min/kg. The Vd in data set [13] came out at 3.5 L/kg.
In the case of `CC(C)[C@@H](CO)NCc1c(C(=O)N[C@@H]2CCC[C@H](O)C2)noc1-c1ccc(C(F)(F)F)cc1`, the IC50 in data set [4] was 10 nM. In addition, in data set [6], the thermodynamic solubility was 81 µg/mL (≈ 173 µM). In data set [8], this compound displayed a logD of 4.1.
Turning to `CN(Cc1c(C(=O)N[C@@H]2CCC[C@H](O)C2)noc1-c1ccc(C(F)(F)F)cc1)C[C@@H]1CCCO1`, the IC50 in data set [4] is 5.01 nM. Moreover, the solubility (thermodynamic) in data set [6] stood at 31 µg/mL (≈ 64.4 µM). The logD in [8] came out at 3.6.
In [1], `CC(C)CNCc1c(C(=O)N[C@@H]2CCC[C@H](O)C2)noc1-c1ccc(C(F)(F)F)cc1` had a bioavailability of 33%. Besides, the microsomal CLint in data set [2] was determined as 107 µL/min/mg; in [3], 12 µL/min/mg. Further, the IC50 in data set [4] is 1 nM. In addition, the Tmax in [5] stood at 2 h. In addition, the MED with Rattus norvegicus [14] came out at 30 µmol/kg. The solubility (thermodynamic) in data set [6] is 78 µg/mL (≈ 177 µM). In addition, in the data set on Rattus norvegicus [15], the outcome was Active. The compound further returned a CL with Hepatocyte of 12 µL/min. Also, the values for the fraction unbound in [7] and in data set [10] were 0.177 and 0.242, respectively. The compound further yielded a log distribution coefficient (logD) in [8] of 4.3. This compound also registered a Cmax in data set [9] of 420 nM. The half-life in [11] was 4 h. In data set [12], this compound yielded a clearance of 69 mL/min/kg. Besides, in [13], the Vd came to 7.6 L/kg.
Regarding `O=C(N[C@@H]1CCC[C@H](O)C1)c1noc(-c2ccc(C(F)(F)F)cc2)c1CNCC(O)C(F)(F)F` (some centres undefined), in [4], the IC50 was 10 nM. In data set [6], the solubility (thermodynamic) was determined as 87 µg/mL (≈ 176 µM). The logD in data set [8] amounted to 4.7.
`O=C(N[C@@H]1CCC[C@H](O)C1)c1noc(-c2ccc(C(F)(F)F)cc2)c1CNC1CCC1`: in data set [4], the IC50 is 15.8 nM. In data set [6], this compound showed a thermodynamic solubility of 26 µg/mL (≈ 59.4 µM). Besides, in data set [8], the pH-dependent lipophilicity (logD) came out at 4.3.
In the case of `CN(CCS(C)(=O)=O)Cc1c(C(=O)N[C@@H]2CCC[C@H](O)C2)noc1-c1ccc(C(F)(F)F)cc1`, the IC50 in data set [4] is 1260 nM. Moreover, the thermodynamic solubility in data set [6] was determined as 26 µg/mL (≈ 51.6 µM). The logD in [8] came to 3.6.
Regarding `COCCN(C)Cc1c(C(=O)N[C@@H]2CCC[C@H](O)C2)noc1-c1ccc(C(F)(F)F)cc1`, the IC50 in [4] was 7.94 nM. Also, the thermodynamic solubility in [6] worked out at 83 µg/mL (≈ 182 µM). In data set [8], this compound yielded a logD of 4.
Take `CN(Cc1c(C(=O)N[C@@H]2CCC[C@H](O)C2)noc1-c1ccc(C(F)(F)F)cc1)[C@@H]1CCOC1`: in [4], the IC50 was 12.6 nM. The compound also came in with a thermodynamic solubility in [6] of 6.6 µg/mL (≈ 14.1 µM). This compound also registered a logD in [8] of 4.5.
With `C[C@H](NCc1c(C(=O)N[C@@H]2CCC[C@H](O)C2)noc1-c1ccc(C(F)(F)F)cc1)C(F)(F)F`, the microsomal CLint came out at 49 µL/min/mg in data set [2] and 66 µL/min/mg in data set [3]. Also, the IC50 in data set [4] is 0.158 nM. This compound also gave a thermodynamic solubility in data set [6] of 3.5 µg/mL (≈ 7.3 µM). Moreover, the values for the fraction unbound in [7] and in data set [10] were 0.048 and 0.037, respectively. In addition, the logD in [8] was found to be 5.6.
As to `O=C(N[C@@H]1CCC[C@H](O)C1)c1noc(-c2ccc(C(F)(F)F)cc2)c1CNCC1CC1`, the microsomal CLint was 55 µL/min/mg in data set [2] and 48 µL/min/mg in data set [3]. This compound displayed a thermodynamic solubility in data set [6] of 77 µg/mL (≈ 176 µM). Besides, the logD in data set [8] came out at 3.5.
As for `O=C(N[C@@H]1CCC[C@H](O)C1)c1noc(-c2ccc(C(F)(F)F)cc2)c1CNCC1CCC1`, the intrinsic clearance (microsomal CLint) in data set [2] came out at 144 µL/min/mg; in data set [3] it was 21 µL/min/mg. For the same compound, the concentration for half-maximal inhibition (IC50) in data set [4] was 1.26 nM. Besides, the pH-dependent lipophilicity (logD) in [8] turned out to be 4.4.
As for `O=C(N[C@@H]1CCC[C@H](O)C1)c1noc(-c2ccc(C(F)(F)F)cc2)c1CNC1CC1`, the intrinsic clearance (microsomal CLint) in data set [2] is under 12 µL/min/mg; in [3] it was 17 µL/min/mg. Besides, the IC50 in data set [4] was 3.16 nM. For the same compound, the thermodynamic solubility in [6] stood at 21 µg/mL (≈ 49.6 µM). Further, the CL with Hepatocyte is under 6 µL/min. The values for the fraction unbound in [7] and in data set [10] were 0.118 and 0.064, respectively. The logD in data set [8] came out at 4.5.
For the compound `CN(Cc1c(C(=O)N[C@@H]2CCC[C@H](O)C2)noc1-c1ccc(C(F)(F)F)cc1)C1CCOCC1`, the IC50 in data set [4] was 79.4 nM. Further, in data set [6], the solubility (thermodynamic) is 82 µg/mL (≈ 170 µM). For the same compound, the logD in data set [8] turned out to be 3.7.
On to `COCCNCc1c(C(=O)N[C@@H]2CCC[C@H](O)C2)noc1-c1ccc(C(F)(F)F)cc1`, for which the IC50 in data set [4] was 126 nM. The compound also yielded a thermodynamic solubility in data set [6] of 80 µg/mL (≈ 181 µM). The compound further registered a log distribution coefficient (logD) in data set [8] of 3.7.
In turn, `CC(C)NCc1c(C(=O)N[C@@H]2CCC[C@H](O)C2)noc1-c1ccc(C(F)(F)F)cc1` yielded a bioavailability in data set [1] of 20%. The microsomal CLint in data set [2] and in [3] was under 12 µL/min/mg throughout. Also, the Tmax in data set [5] was 2 h. In [6], the thermodynamic solubility turned out to be 82 µg/mL (≈ 193 µM). The compound also showed a CL in the data set on Hepatocyte of under 6 µL/min. Moreover, the fraction unbound in data set [7] is 0.25; in data set [10] it was 0.271. In [8], this compound came in with a logD of 3. This compound displayed a Cmax in data set [9] of 720 nM. For the same compound, the half-life in [11] is 7.9 h. This compound registered a clearance in [12] of 12.5 mL/min/kg. Also, in data set [13], the Vd is 5.9 L/kg.
With `CC(C)N(C)Cc1c(C(=O)N[C@@H]2CCC[C@H](O)C2)noc1-c1ccc(C(F)(F)F)cc1`, the 50% inhibitory concentration (IC50) in data set [4] is 25.1 nM. For the same compound, in [6], the solubility (thermodynamic) amounted to 80 µg/mL (≈ 182 µM). The compound further returned a logD in [8] of 4.
`CC(C)(CO)CNCc1c(C(=O)N[C@@H]2CCC[C@H](O)C2)noc1-c1ccc(C(F)(F)F)cc1`: the results for the microsomal CLint in [2] and in [3] were 93 µL/min/mg and 12 µL/min/mg, respectively. In addition, the IC50 in data set [4] was 3.16 nM. Moreover, in data set [6], the thermodynamic solubility was found to be 89 µg/mL (≈ 190 µM). Besides, the CL with Hepatocyte was 10 µL/min. Besides, the fraction unbound is 0.361 in [7] and 0.168 in [10]. In data set [8], this compound registered a logD of 3.5.
For the compound `CCN(Cc1c(C(=O)N[C@@H]2CCC[C@H](O)C2)noc1-c1ccc(C(F)(F)F)cc1)C(C)C`, the IC50 in data set [4] was 25.1 nM. The compound further displayed a thermodynamic solubility in data set [6] of 85 µg/mL (≈ 187 µM). In data set [8], this compound had a pH-dependent lipophilicity (logD) of 4.1.
Take `NC(=O)C1CCN(Cc2c(C(=O)N[C@@H]3CCC[C@H](O)C3)noc2-c2ccc(C(F)(F)F)cc2)CC1`: the IC50 in data set [4] is 3160 nM. In addition, the thermodynamic solubility in [6] was found to be 30 µg/mL (≈ 60.7 µM). The same compound registered a logD in data set [8] of 3.6.
